We go through two compounds from patent US20200038355A1, “ANTIOXIDANTS FOR USE IN OPHTHALMIC SURGERY” (Case Western Reserve University, priority 2017, published 2020).

Entries after “also recorded” stand apart in the source; their conditions may differ.

One experiment has as its system HLE-B3 cells. In words: EMT marker / Wnt-β-catenin immunoblot in human lens epithelial cell line HLE-B3. It counts as cell-based. The conditions noted are these: for αSMA production after BSO stimulation: HLE-B3 cells co-treated with 10 mM NAC or 0.5 mM GSH-EE and 500 μM BSO, 24 hr; for TGFβ2-mediated αSMA production: HLE-B3 cells, 10 mM NAC or 0.5 mM GSH-EE co-incubated with 1 ng/ml TGFβ2, 24 hr; for BSO-increased Ser9 phosphorylation of GSK-3β / BSO-increased β-catenin expression: cells co-treated with 0.5 mM GSH-EE or 10 mM NAC, BSO 24 hr. Here is the method:
Cell Culture—Human lens epithelial cells (HLE-B3) were grown in DMEM medium with 10% fetal bovine serum (FBS), 2 mM glutamine and 50 unit/ml penicillin streptomycin (ThermoFisher, Waltham, Mass.) at 37° C. in a humidified 5% CO2 incubator. For primary porcine lens epithelial cell culture, pig eyes were collected at a local slaughterhouse within two hours of postmortem time, placed on ice and transported to the lab (about 1 hr) for immediate processing. First, the isolated lens was incubated with 2 ml of 0.25% trypsin at 37° C. for 2 min to remove any attached non-lens cells. Then, after a brief rinse with HBSS, the lens capsule was isolated and rinsed three times with HBSS before incubation with 2 ml of 0.5% trypsin for 5 min. 5 ml of complete DMEM medium was added and tissue was disrupted by pipetting up and down 10-15 times with a pipette fitted with a 1000 μl tip. The tissue homogenate was then passed through a 100 μm cell strainer. The cells were collected by low speed centrifugation at 150×g and placed in a 35 mm laminin-coated tissue culture dish with DMEM medium supplied with 10% FBS, 2 mM glutamine and 50 unit/ml penicillin streptomycin (ThernoFisher). The cells were cultured at 37° C. in a humidified incubator with 5% CO2.
(§1) Cells were placed 24 hr before the treatment and fresh medium was replaced immediately before the treatment. The indicated concentrations of BSO, DMF, NAC, GSH-EE or TGFβ2 were added to fresh medium and incubated at various time intervals as indicated. After treatment time, the cells were harvested after three washes with ice-cold PBS and subjected to immunoblot or other assays as described below. For whole lens culture, the serum-free medium with or without BSO, NAC, GSH-EE or TGFβ2 was incubated immediately after isolation for 48 hr and the whole lens or lens capsule was collected for further analysis. For lens explant culture, 48 hr after explant culture, various stimulates were used in fresh serum-free medium for an additional 48 hr, and the explant was fixed with 10% formaldehyde for 10 min before immunofluorescence stain, as described below.
The cells, whole lens, lens capsule, and lens fibers were collected and lysed in lysis buffer containing 20 mM Tris pH 7.5, 1 mM EDTA, 1 mM EGTA, 150 mM NaCl, 1% Triton X-100, 2.5 mM sodium pyrophosphate, 1 mM bα-Glycerolphosphate, 1 mM Na3VO4, 1 mg/ml Leupeptin, 1 mM PMSF on ice for 10 min. The protein concentration from the supernatant was determined by protein BCA assay (ThermoFisher). The protein extract was further processed for immunoblot analysis and probed for αSMA, collagen I, vimentin, phosphorylated Smad2, phosphorylated Smad3, phosphorylated GSK-3β and (β-catenin. All data were normalized to the level of GAPDH.
For orientation: A western blot detects proteins with antibodies after separation by electrophoresis.

The next experiment relates to lens explant. Kind of experiment: Mouse lens explant culture (ex vivo PCO mimetic model), αSMA immunofluorescence. It counts as cell-based. The following applies: 10 mM NAC or 0.5 mM GSH-EE co-incubated with 1 ng/ml TGFβ2, 48 hr. Here is the method:
The isolated intact lens was rinsed three times with HBSS and then cultured in 12-well-plates with serum-free Medium 199 (ThermoFisher) with 50 unit/ml penicillin streptomycin at 37° C. in 5% CO2 incubator, as described above. The lens explant was cultured following the same procedure as described by a previous report. Tamiya et al., Exp Eye Res 71, 591-597 (2000). In brief, the mouse lens was placed in an anterior-toposterior orientation with the anterior attached to the culture dish. The lens posterior capsule was torn/cut by the tip of extra-fine forceps and then peeled towards anterior capsule and pinned on the plastic culture dish. The lens fiber mass was removed thereafter. The explant was cultured in serum-free MEM medium supplied with 50 unit/ml penicillin streptomycin at 37° C. in 5% CO2 incubator as described above. Only healthy growing explants were used for the described study and any unhealthy looking explants, such as folded explants or those with cell detachment, were discarded.
as §1, with “For lens explant culture, 48 hr after explant culture, various stimulates were used in fresh serum-free medium for an additional 48 hr, and the explant was fixed with 10% formaldehyde for 10 min before immunofluorescence stain, as described below.” left out
Confocal microscope—All confocal images were collected by a Leica SP8 gSTED confocal microscope equipped with two 3 Hyd SP GaAsP detectors and the AOBS system lasers include a 405 nm, Argon (458, 476, 488, 496, 514 nm), a tunable white light (470 to 670 nm), and a 592 nm STED depletion laser. For proper comparison, each channel of fluorescence was adjusted to the highest sensitivity/intensity but without over saturation from samples with the strongest signal. […]

`CCOC(=O)CNC(=O)[C@H](CS)NC(=O)CC[C@H](N)C(=O)O` [GSH-EE, glutathione ethyl ester]: in the experiment with HLE-B3 cells, the “αSMA production after BSO stimulation” value is “alleviated; also recorded: partially, but significantly, block”; the “TGFβ2-mediated αSMA production” value is recorded as “alleviated; also recorded: significantly alleviate”; the “BSO-increased Ser9 phosphorylation of GSK-3β” value was “alleviated”; the “BSO-increased β-catenin expression” value was “attenuate; also recorded: alleviated”. Moreover, in the experiment with lens explant, the “TGFβ2-induced αSMA elevation in lens explant” value is reported as “partially, but significantly, attenuated”.
On to `CC(=O)N[C@@H](CS)C(=O)O` [NAC, N-acetyl cysteine], for which, in the experiment with HLE-B3 cells, the “αSMA production after BSO stimulation” value is listed as “alleviated; also recorded: completely abolish”, the “TGFβ2-mediated αSMA production” value is recorded as “alleviated; also recorded: completely block”, the “BSO-increased Ser9 phosphorylation of GSK-3β” value is “attenuate; also recorded: alleviated; also recorded: completely abolished” and the “BSO-increased β-catenin expression” value is listed as “alleviated”. In addition, the “inhibitory effect on EMT process compared with GSH-EE” value with HLE-B3 cells (cell culture) is given as “much higher inhibitory effect than GSH-EE”. The “TGFβ2-induced αSMA elevation in lens explant” value in the experiment with lens explant is given as “attenuated; also recorded: completely alleviated”.
